Each structure is given as a SMILES string.

Consider 7 compounds from patent US9593305B2, “Differentiation of pluripotent stem cells” (Janssen Biotech, Inc., priority 2008, dated 2017).

The subject of this assay is H1 human embryonic stem cells. The assay is described as follows: Secondary screening with EGF/FGF4 in the absence of activin A (Example 4). In kind it is cell-based. The conditions noted are these: for Cell Number: % of positive control / Cell Number: Average Total Cell Number / Sox17 Expression: % of positive control / Sox17 Expression: Average Total Intensity: 2.5 μM compound + 50 ng/ml EGF + 50 ng/ml FGF4, Wnt3a, no activin A, four days. As to the method: Clusters of H1 human embryonic stem cells were grown on reduced growth factor […]™ (Invitrogen; Cat #356231)-coated tissue culture plastic. Cells were passaged using collagenase (Invitrogen; Cat #Cat #17104-019) treatment and gentle scraping, washed to remove residual enzyme, and plated with even dispersal at a ratio of 1:1 (surface area) on reduced growth factor […]™-coated 96-well black plates (Packard ViewPlates; PerkinElmer; Cat #6005182) using volumes of 100 μl/well. Cells were allowed to attach as clusters and then recover log phase growth over a 1 to 3 day period, feeding daily with MEF conditioned medium supplemented with 8 ng/ml bFGF (R&D Systems; Cat #233-FB). Plates were maintained at 37° C., 5% CO2 in a humidified box throughout the duration of assay.
Stock concentrations for EGF (R&D Systems; Cat #236-EG) and FGF4 (R&D Systems; Cat #235-F4) were 250 ng/ml, each solubilized in PBS with 0.1% BSA (Sigma; Cat #A7888). Compounds were available as 5 mM stocks in 96-well plate format, solubilized in 100% DMSO (Sigma; Cat #D2650) and stored at −80° C. The compounds were further diluted to an intermediate concentration of 0.2 mM in 50 mM HEPES (Invitrogen; Cat #15630-080), 20% DMSO and stored at 4° C. All growth factors and inhibitors were prepared in a deep well, 96-well polypropylene plate, diluted to 5× intermediate stocks in DMEM:F12 base medium at the beginning of assay and stored at 4° C.
A secondary screening assay was conducted, testing in triplicate and feeding on alternate days over the four-day assay timeframe. Assays were initiated by aspirating culture medium from each well followed by three washes in PBS to remove residual growth factors and serum. Test volumes of 80 μl per well were added back containing DMEM:F12 base medium (Invitrogen; Cat #11330-032) supplemented with 0.625% FCS (HyClone; Cat #SH30070.03), 25 ng/ml Wnt3a (R&D Systems), and 3.125 μM compound plus 20 μl 5× stock of growth factors to yield a final concentration of 0.5% FCS, 20 ng/ml Wnt3a, and 2.5 μM compound plus 50 ng/ml EGF and 50 ng/ml FGF4 in the assay. Positive control wells (100 μl/well) contained the same base medium supplemented with 0.5% FCS, 20 ng/ml Wnt3a and 100 ng/ml activin A. Negative control wells (100 μl/well) contained the same base medium with 0.5% FCS and 20 ng/ml Wnt3a, omitting activin A.
On day 3, wells were aspirated and fed with 80 μl DMEM:F12 base medium supplemented with 2.5% FCS (HyClone) and 3.125 μM compound plus […] 5× stock of growth factors per well to yield a final concentration of 2% FCS and 2.5 μM compound (omitting Wnt3a) plus 50 ng/ml EGF and FGF4 in the assay. Positive control wells (100 μl/well) contained the same base medium supplemented with 2% FCS and 100 ng/ml activin A, omitting Wnt3a. Negative control wells (100 μl/well) contained the same base medium with 2% FCS, omitting both activin A and Wnt3a.
At the conclusion of four-days of culture, assay plates were washed twice with PBS, fixed with 4% paraformaldehyde (Alexis Biochemical; Cat #ALX-350-011) at room temperature for 20 minutes, then washed three times with PBS and permeabilized with 0.5% Triton X-100 (Sigma; Cat #T8760-2) for 20 minutes at room temperature. Cells were washed again three times with PBS and blocked with 4% chicken serum (Invitrogen; Cat 16110082) in PBS for 30 minutes at room temperature. Primary antibody (goat anti-human SOX17; R&D Systems; cat #AF1924) was diluted 1:100 in 4% chicken serum and added to each well for one hour at room temperature. Alexa Fluor 488 conjugated secondary antibody (chicken anti-goat IgG; Molecular Probes; Cat #AZ1467) was diluted 1:200 in PBS and added to each sample well after washing three times with PBS. To counterstain nuclei, 4 μg/ml Hoechst 33342 (Invitrogen; Cat #H3570) was added for ten minutes at room temperature. Plates were washed once with PBS and left in 100 μl/well PBS for imaging. […]

The mark [1] stands for this setting: Table 3B most potent compounds, with EGF + FGF4, no activin A.

As for `O=C1NCCCc2cncc(c2)-c2ncnc(n2)Nc2cccc(c2)CN2CCCC1C2` (centres unmarked) [Compound 17, 3,5,7,14,20,26,31-Heptaazapentacyclo[22.3.1.1-2,6˜1˜8,12˜1˜14,18˜]hentriaconta-1(28), 2(31), 3,5,8(30), 9,11,24,26-nonaen-19-one], the “Cell Number: % of positive control” value was 114.51 % of positive control, the “Cell Number: Average Total Cell Number” value came to 21445, the “Sox17 Expression: % of positive control” value is 18.48 % of positive control and the “Sox17 Expression: Average Total Intensity” value came to 3.43E+07.
The corresponding values for `O=C1NCCCc2cncc(c2)-c2ncnc(n2)Nc2cccc(c2)CN2CCC1CC2` [Compound 22, 1,8,10,12,16,22,30-Heptaazapentacyclo[22.2.2.1-3,7˜0.1˜9,13˜1-14,18˜]hentriaconta-3(31), 4,6,9(30), 10,12,14(29), 15,17-nonaen-23-one] are 97.91 % of positive control, 18336, 20.05 % of positive control and 3.72E+07.
The corresponding values for `CCN1CCCc2cccc(c2)-c2ncnc(n2)Nc2cccc(c2)CCNC(=O)C1` [Compound 29, 18-Ethyl-3,5,7,15,18,28-hexaazatetracyclo[20.3.1.1˜2,6˜0.1˜8,12˜]octacosa-1(26), 2(28), 3,5,8(27), 9,11,22,24-nonaen-16-one] are 107.97 % of positive control, 20221, 15.27 % of positive control and 2.83E+07.
The corresponding values for `O=C1CCN2CCN(CC2)Cc2cc(Cl)cc(c2)Nc2ncnc(n2)-c2cncc(c2)CCCN1` [Compound 34, 5-Chloro-1,8,10,12,16,22,26,32-octaazapentacyclo[24.2.2.1˜3.7˜0.1˜9,13˜0.1˜14.18˜]tritriaconta-3(33), 4,6,9(32), 10,12,14(31), 15,17-nonaen-23-one] are 100.87 % of positive control, 18891, 17.55 % of positive control and 3.26E+07.
Take `CCN1CC(=O)NCCCc2cncc(c2)-c2ncnc(n2)Nc2cc(Cl)cc(c2)C1` [Compound 35, 10-Chloro-14-ethyl-3,5,7,14,17,23,27-heptaazatetracyclo[19.3.1.1˜2,6˜0.1˜8,12]Theptacosa-1(25), 2(27), 3,5,8(26), 9,11,21,23-nonaen-16-one]: under setting [1], the “Cell Number, % of positive control” value was 127.20 % of positive control and the “Sox17 Intensity % of positive control” value is given as 13.69 % of positive control.
Turning to `O=C1NCCCc2cncc(c2)-c2ncnc(n2)Nc2cc(Cl)cc(c2)CN2CCCC1C2` (centres unmarked) [Compound 37, 10-Chloro-3,5,7,14,20,26,31-heptaazapentacyclo[22.3.1.1˜2,6˜0.1˜8,12˜0.1˜14,18˜]hentriaconta-1(28), 2(31), 3,5,8(30), 9,11,24,26-nonaen-19-one], the “Cell Number: % of positive control” value is 83.32 % of positive control, the “Cell Number: Average Total Cell Number” value was determined as 15605, the “Sox17 Expression: % of positive control” value is given as 14.37 % of positive control and the “Sox17 Expression: Average Total Intensity” value came to 2.67E+07.
Take `CN1CCC(=O)NCCCNc2ncccc2-c2ncnc(n2)Nc2cccc(c2)C1` [Compound 39, 9-Methyl-2,3,4,5,7,8,9,10-octahydro-16H-17,21-(azeno)-11,15-(metheno)pyrido[3,2-g][1,3,5,9,13,17]hexaazacyclotricosin-6(1H)-one]: the “Cell Number: % of positive control” value is reported as 91.28 % of positive control, the “Cell Number: Average Total Cell Number” value worked out at 17095, the “Sox17 Expression: % of positive control” value is 15.19 % of positive control and the “Sox17 Expression: Average Total Intensity” value is 2.82E+07.
